Test [1] relates to Felis catus. Kind of test: change in heart rate(beats/min) of the cat on intravenous administration of 0.115 umol/kg of the compound. It is filed as functional.
Test [2] concerns Felis catus. Kind of test: %change in arterial pressure of the cat on intravenous administration 0.115 umol/kg of the compound. It is filed as functional, Artery.
Test [3] has as its system Felis catus. Kind of test: %change in arterial pressure of the cat on intravenous administration of 0.038 umol/kg the compound. It is filed as functional, Artery.
Test [4] relates to Canis familiaris. Briefly: Compound was tested for emesis(active expulsion of fluid or solid matter)in dog at 2 umol/kg sc; No emesis produced. It is filed as functional, organism-based. The settings on record: Canis lupus familiaris.
The test system of test [5] is Felis catus. Kind of test: change in heart rate(beats/min) of the cat on intravenous administration 0.038 umol/kg of the compound. The class given is functional.
For test [6], the system named is Felis catus. Kind of test: Compound was tested for the inhibition of cat cardioaccelerator nerve stimulation; Inactive at 2 umol/kg iv. It is filed as functional, organism-based.
The subject of test [7] is Felis catus. Kind of test: %change in arterial pressure of the cat on intravenous administration of 0.38 umol/kg of the compound. The class given is functional, Artery.
The test system of test [8] is Felis catus. Kind of test: change in heart rate(beats/min) of the cat on intravenous administration of 0.38 umol/kg of the compound. It is filed as functional.
In test [9] the test system is Canis familiaris. Briefly: Compound was tested for increase in renal blood flow in dog anesthetized with sodium pentobarbitol (30 mg/kg, iv) and systemic blood pressure and heart rate were recorded; Inactive at 2 umol/kg. The class given is functional, organism-based. The settings on record: Canis lupus familiaris.
The subject of test [10] is Felis catus. Kind of test: Change in heart rate(beats/min) of the cat on intravenous administration of 0.11 umol/kg of the compound. The class given is functional.
For test [11], the system named is Felis catus. Briefly: Percentage change in arterial pressure of the cat on intravenous administration of 0.99 umol/kg of the compound. It is filed as functional, Artery.
Test [12] concerns Felis catus. Kind of test: Percentage change in arterial pressure of the cat on intravenous administration of 0.11 umol/kg of the compound. It is filed as functional, Artery.
In test [13] the test system is Felis catus. Briefly: Percentage change in arterial pressure of the cat on intravenous administration of 0.33 umol/kg of the compound. It is filed as functional, Artery.
The test system of test [14] is Felis catus. Kind of test: Change in heart rate(beats/min) of the cat on intravenous administration of 0.99 umol/kg of the compound. The class given is functional.
The subject of test [15] is Felis catus. Briefly: Compound was tested for the inhibition of cat cardioaccelerator nerve stimulation; […]. It is filed as functional, organism-based.
For test [16], the system named is Felis catus. Kind of test: Change in heart rate(beats/min) of the cat on intravenous administration of 0.33 umol/kg of the compound. It is filed as functional.
The subject of test [17] is Felis catus. Kind of test: Change in heart rate(beats/min) of the cat on intravenous administration of 0.016 umol/kg of the compound. The class given is functional.
Test [18] is filed under the species Felis catus. Briefly: Potency relative to apomorphine. The class given is functional.
The subject of test [19] is Felis catus. Kind of test: Percentage change in arterial pressure of the cat on intravenous administration at 0.008 umol/kg. The class given is functional, Artery.
Test [20] deals with Felis catus. Briefly: Percentage change in arterial pressure of the cat on intravenous administration of 0.032 umol/kg of the compound. The class given is functional, Artery.
The species entered for test [21] is Canis familiaris. Briefly: Compound was tested for emesis(active expulsion of fluid or solid matter)in dog, activity expressed as ED50. It is filed as functional. The settings on record: Canis lupus familiaris.
Test [22] concerns Felis catus. Briefly: Change in heart rate(beats/min) of the cat on intravenous administration at 0.008 umol/kg. The class given is functional.
Test [23] is filed under the species Felis catus. Kind of test: Compound was tested for the inhibition of cat cardioaccelerator nerve stimulation,. It is filed as functional.
The subject of test [24] is Felis catus. Kind of test: Percentage change in arterial pressure of the cat on intravenous administration of 0.016 umol/kg of the compound. It is filed as functional, Artery.
Test [25] concerns Felis catus. Briefly: Percentage change in arterial pressure of the cat on intravenous administration of 0.009 umol/kg of the compound. The class given is functional, Artery.
Test [26] relates to Felis catus. Kind of test: Change in heart rate(beats/min) of the cat on intravenous administration of 0.033 umol/kg of the compound. The class given is functional.
In test [27] the test system is Felis catus. Kind of test: Change in heart rate(beats/min) of the cat on intravenous administration of 0.003 umol/kg of the compound. The class given is functional.
The subject of test [28] is Felis catus. Kind of test: Percentage change in arterial pressure of the cat on intravenous administration of 0.033 umol/kg of the compound. The class given is functional, Artery.
The species entered for test [29] is Felis catus. Kind of test: Compound was tested for the inhibition of cat cardioaccelerator nerve stimulation. The class given is functional.
Test [30] relates to Felis catus. Briefly: Change in heart rate(beats/min) of the cat on intravenous administration of 0.009 umol/kg of the compound. It is filed as functional.
The test system of test [31] is Felis catus. Kind of test: Percentage change in arterial pressure of the cat on intravenous administration of 0.003 umol/kg of the compound. It is filed as functional, Artery.
The species entered for test [32] is Felis catus. Briefly: Compound was tested for the inhibition of cat cardioaccelerator nerve stimulation, activity expressed as ED50. The class given is functional.
Test [33] has as its system Felis catus. Briefly: Percentage change in arterial pressure of the cat on intravenous administration of 0.1 uM/kg of the compound. The class given is functional, Artery.
Test [34] relates to Felis catus. Kind of test: Percentage change in arterial pressure of the cat on intravenous administration of 0.01 umol/kg of the compound. It is filed as functional, Artery.
The subject of test [35] is Felis catus. Kind of test: Percentage change in arterial pressure of the cat on intravenous administration of 0.03 umol/kg of the compound. The class given is functional, Artery.
Test [36] concerns Felis catus. Briefly: Change in heart rate(beats/min) of the cat on intravenous administration of 0.1 uM/kg of the compound. The class given is functional.
In test [37] the test system is Felis catus. Briefly: Change in heart rate(beats/min) of the cat on intravenous administration of 0.03 umol/kg of the compound. It is filed as functional.
In test [38] the test system is Felis catus. Kind of test: Change in heart rate(beats/min) of the cat on intravenous administration of 0.01 umol/kg of the compound. It is filed as functional.
The species named for test [39] is Canis familiaris. Kind of test: Compound was tested for emesis(active expulsion of fluid or solid matter)in dog. The class given is functional. Particulars: Canis lupus familiaris.
Test [40] deals with Felis catus. Kind of test: Percentage change in arterial pressure of the cat on intravenous administration of 0.10 umol/kg of the compound. It is filed as functional, Artery.
Test [41] has as its system Felis catus. Briefly: Change in heart rate(beats/min) of the cat on intravenous administration of 0.10 umol/kg of the compound. The class given is functional.
In test [42] the test system is Felis catus. Briefly: Change in heart rate(beats/min) of the cat on intravenous administration of 1.09 umol/kg of the compound. It is filed as functional.
Test [43] has as its system Felis catus. Kind of test: Percentage change in arterial pressure of the cat on intravenous administration of 1.09 umol/kg of uM/kg of the compound. The class given is functional, Artery.
Test [44] relates to Felis catus. Briefly: Change in heart rate(beats/min) of the cat on intravenous administration of 0.36 umol/kg the compound. It is filed as functional.
Test [45] has as its system Felis catus. Briefly: Percentage change in arterial pressure of the cat on intravenous administration of 0.36 umol/kg of the compound. The class given is functional, Artery.

The source made the active and inactive calls. The rule behind the calls is not given here.

As usually defined, the ED50 is the dose that gives a 50% effect, or the effect in half of the subjects.

As for `Br.NC1CCc2c(O)cc(O)cc2C1` (centres undefined), the Heart rate in the test on Felis catus [1] amounted to 3.6 beats min-1; in the test with Felis catus [5], 0 beats min-1; with Felis catus [8], 17.6 beats min-1. In addition, the Change in the test on Felis catus [2] is listed as 21.6%; in the test with Felis catus [3], 19.7%; in the test with Felis catus [7], 30.5%. Moreover, the ED50 entry with Canis familiaris [4] was “No emesis produced”. Further, in the test with Felis catus [6], the ED50 result is “inactive”. Besides, the Increase result in the test with Canis familiaris [9] was “inactive”.

For `Br.CC(C)NC1CCc2c(O)cc(O)cc2C1` (centres undefined), the Heart rate in the test with Felis catus [10] amounted to 3.2 beats min-1; in the test on Felis catus [14], 14.4 beats min-1; in the test with Felis catus [16], 7.7 beats min-1. The figures for the Change with Felis catus [11], in the test with Felis catus [12] and in the test on Felis catus [13] were 25.2%, 16.9% and 19.7%, respectively. The ED50 result in the test with Canis familiaris [4] and in the test with Felis catus [15] was “inactive” throughout. The Increase result in the test with Canis familiaris [9] is “inactive”.

As for `CN1CCc2cccc3c2[C@H]1Cc1ccc(O)c(O)c1-3` [APOMORPHINE], the Heart rate in the test with Felis catus [17] is -6.5 beats min-1; in the test on Felis catus [22], -4.3 beats min-1. The compound further displayed a Relative potency in the test listed under Felis catus [18] of 1. The Change was -9.9% in the test on Felis catus [19], -18.2% in the test on Felis catus [20] and -11.5% with Felis catus [24]. The ED50 in the test listed under Canis familiaris [21] was found to be 0.142 µmol/kg; in the test filed under Felis catus [23], 0.022 µmol/kg.

Regarding `Br.CCN(CC)C1CCc2c(O)cc(O)cc2C1` (centres undefined), the figures for the Change in the test on Felis catus [25], in the test with Felis catus [28] and with Felis catus [31] were -23%, -25% and -8.7%, respectively. Also, the values for the Heart rate in the test on Felis catus [26], in the test with Felis catus [27] and in the test on Felis catus [30] were -25 beats min-1, -2.1 beats min-1 and -23 beats min-1, respectively. Also, the Relative potency in the test filed under Felis catus [18] was found to be 1.4. In the test listed under Felis catus [29], this compound had an ED50 of 0.024 µmol/kg. Further, the Increase entry with Canis familiaris [9] was “inactive”.

For `Br.CCCN(CCC)C1CCc2c(O)cc(O)cc2C1` (centres undefined), the Change with Felis catus [25] was -17.2%; in the test on Felis catus [28], -27.2%; in the test on Felis catus [31], -12.2%. Further, the Heart rate was -5.6 beats min-1 in the test on Felis catus [26], -3.6 beats min-1 in the test with Felis catus [27] and -4.8 beats min-1 in the test with Felis catus [30]. In the test filed under Felis catus [18], this compound had a Relative potency of 0.95. In the test listed under Felis catus [32], it took a dose of 0.035 µmol/kg to reach the 50% effect level (ED50). Besides, in the test on Canis familiaris [9], the Increase entry was “inactive”.

Regarding `Br.CN(C)C1CCc2c(O)cc(O)cc2C1` (centres undefined), the Change in the test on Felis catus [33] worked out at 23.2%; in the test on Felis catus [34] it was 4.1%; in the test with Felis catus [35], 8%. The Relative potency in the test listed under Felis catus [18] was found to be 1.45. Also, the Heart rate in the test with Felis catus [36] was found to be 12.8 beats min-1; in the test on Felis catus [37] it was 0.6 beats min-1; in the test on Felis catus [38] it was 0 beats min-1. In addition, the 50% effect level in the test filed under Felis catus [29] (ED50) was put at a dose of 0.021 µmol/kg.

For the compound `Br.CCNC1CCc2c(O)cc(O)cc2C1` (centres undefined), the values for the ED50 in the test listed under Canis familiaris [39] and in the test listed under Felis catus [29] were 0.36 µmol/kg and 0.04 µmol/kg, respectively. The Heart rate with Felis catus [26] is -10.6 beats min-1; in the test on Felis catus [38] it was -6.6 beats min-1; with Felis catus [41], -6 beats min-1. The same compound displayed a Relative potency in the test listed under Felis catus [18] of 1.04. Besides, the Change is given as -6.3% with Felis catus [34], -18.5% in the test with Felis catus [28] and -19.6% in the test on Felis catus [40]. Besides, in the test on Canis familiaris [9], the Increase result is “inactive”.

Regarding `Br.CNC1CCc2c(O)cc(O)cc2C1` (centres undefined), the results for the Heart rate in the test with Felis catus [42] and with Felis catus [44] were 44 beats min-1 and 26.7 beats min-1, respectively. For the same compound, the Change with Felis catus [43] was 84.2%; in the test on Felis catus [45], 49.7%. Also, in the test on Canis familiaris [4], the ED50 entry is “No emesis produced”. Further, the ED50 entry in the test with Felis catus [6] is “inactive”. In the test on Canis familiaris [9], the Increase entry was “inactive”.

(Values after ChEMBL document CHEMBL1121778, “5,7-Dihydroxy-2-aminotetralin derivatives: synthesis and assessment of dopaminergic and adrenergic actions” (1981).)
